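1) Cells in 96-well plates. 2) Compound, 48 h, 5 concentrations. 3) Linear interpolation between surrounding doses. 4) Unreached endpoint = highest concentration. At the TGI there is no net growth.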
Columns and labels:
Assay in all cases: NCI tumour cell line growth inhibition, 48 h
SF-295 CNS = tested on: SF-295 CNS
T-47D breast = tested on: T-47D breast
CAKI-1 renal = tested on: CAKI-1 renal
OVCAR-8 ovarian = tested on: OVCAR-8 ovarian
NCI/ADR-RES ovarian = tested on: NCI/ADR-RES ovarian
OVCAR-4 ovarian = tested on: OVCAR-4 ovarian
HCC-2998 colon = tested on: HCC-2998 colon
UO-31 renal = tested on: UO-31 renal
PC-3 prostate = tested on: PC-3 prostate
M14 melanoma = tested on: M14 melanoma
KM12 colon = tested on: KM12 colon
K-562 leukemia = tested on: K-562 leukemia
SF-539 CNS = tested on: SF-539 CNS
U251 CNS = tested on: U251 CNS
HCT-116 colon = tested on: HCT-116 colon
NCI-H23 lung = tested on: NCI-H23 lung
786-0 renal = tested on: 786-0 renal
SW-620 colon = tested on: SW-620 colon
SF-268 CNS = tested on: SF-268 CNS
IGROV1 ovarian = tested on: IGROV1 ovarian
MALME-3M melanoma = tested on: MALME-3M melanoma
SNB-75 CNS = tested on: SNB-75 CNS
MCF7 breast = tested on: MCF7 breast
RXF 393 renal = tested on: RXF 393 renal
A549 NSCLC = tested on: A549 NSCLC
SNB-19 CNS = tested on: SNB-19 CNS
MDA-MB-435 = tested on: MDA-MB-435
HS 578T breast = tested on: HS 578T breast
HOP-92 NSCLC = tested on: HOP-92 NSCLC
BT-549 breast = tested on: BT-549 breast
COLO 205 colon = tested on: COLO 205 colon
SK-MEL-5 melanoma = tested on: SK-MEL-5 melanoma
RPMI-8226 leukemia = tested on: RPMI-8226 leukemia
SR leukemia = tested on: SR leukemia
HOP-62 NSCLC = tested on: HOP-62 NSCLC
TK-10 renal = tested on: TK-10 renal
HT29 colon = tested on: HT29 colon
SK-OV-3 ovarian = tested on: SK-OV-3 ovarian
SK-MEL-28 melanoma = tested on: SK-MEL-28 melanoma
LOX IMVI melanoma = tested on: LOX IMVI melanoma
ACHN renal = tested on: ACHN renal
MDA-MB-231 breast = tested on: MDA-MB-231 breast
NCI-H522 lung = tested on: NCI-H522 lung
NCI-H460 lung = tested on: NCI-H460 lung
HCT-15 colon = tested on: HCT-15 colon
NCI-H226 lung = tested on: NCI-H226 lung
MDA-N = tested on: MDA-N
SN12C renal = tested on: SN12C renal
HL-60(TB) leukemia = tested on: HL-60(TB) leukemia
DU-145 prostate = tested on: DU-145 prostate
OVCAR-3 ovarian = tested on: OVCAR-3 ovarian
MOLT-4 leukemia = tested on: MOLT-4 leukemia
EKVX NSCLC = tested on: EKVX NSCLC
OVCAR-5 ovarian = tested on: OVCAR-5 ovarian
CCRF-CEM leukemia = tested on: CCRF-CEM leukemia
UACC-257 melanoma = tested on: UACC-257 melanoma
UACC-62 melanoma = tested on: UACC-62 melanoma
A498 renal = tested on: A498 renal
SK-MEL-2 melanoma = tested on: SK-MEL-2 melanoma

Measured: TGI

CC(=O)OCC1OC(n2c(-c3ccc(Cl)cc3)cc(-c3ccccc3)c(C#N)c2=S)C(OC(C)=O)C(OC(C)=O)C1OC(C)=O (configuration not stated)
17.9 µM: NCI-H460 lung
26.2 µM: ACHN renal
14.7 µM: SW-620 colon
25.8 µM: IGROV1 ovarian
26.3 µM: SN12C renal
35 µM: OVCAR-5 ovarian
22.4 µM: OVCAR-3 ovarian
23 µM: OVCAR-8 ovarian
27.2 µM: NCI-H23 lung
12 µM: NCI-H226 lung
35.6 µM: DU-145 prostate
7.71 µM: MALME-3M melanoma
42.2 µM: TK-10 renal
31.9 µM: EKVX NSCLC
17.4 µM: HL-60(TB) leukemia
15.7 µM: MDA-MB-231 breast
27.9 µM: A549 NSCLC
43.3 µM: RPMI-8226 leukemia
23.5 µM: SK-MEL-5 melanoma
34.7 µM: HCC-2998 colon
20.8 µM: SNB-75 CNS
25.2 µM: MDA-MB-435 | SK-OV-3 ovarian
17.8 µM: BT-549 breast | LOX IMVI melanoma
24.3 µM: MDA-N
26.9 µM: CAKI-1 renal
67.8 µM: MCF7 breast
53 µM: SR leukemia
25.6 µM: SF-268 CNS
40.1 µM: UO-31 renal
23.3 µM: PC-3 prostate
23.6 µM: SF-295 CNS
3.3 µM: OVCAR-4 ovarian
21 µM: NCI/ADR-RES ovarian
23.4 µM: SK-MEL-28 melanoma
10.5 µM: HS 578T breast
60.1 µM: NCI-H522 lung
33 µM: COLO 205 colon
24.6 µM: 786-0 renal
21.1 µM: HT29 colon
18.8 µM: HCT-116 colon
16.4 µM: M14 melanoma
20.9 µM: SNB-19 CNS
39.5 µM: T-47D breast
40.8 µM: HOP-92 NSCLC
> 100 µM: K-562 leukemia | HCT-15 colon
48.7 µM: KM12 colon
85.9 µM: MOLT-4 leukemia
20.6 µM: U251 CNS
20.5 µM: HOP-62 NSCLC
26 µM: RXF 393 renal
14.6 µM: SF-539 CNS

COc1ccc(NC=O)c(C(=O)CCNC(C)=O)c1
> 100 µM: SF-295 CNS | T-47D breast | CAKI-1 renal | OVCAR-8 ovarian | NCI/ADR-RES ovarian | OVCAR-4 ovarian | UO-31 renal | PC-3 prostate | M14 melanoma | KM12 colon | K-562 leukemia | SF-539 CNS | CCRF-CEM leukemia | U251 CNS | HCT-116 colon | NCI-H23 lung | 786-0 renal | SW-620 colon | SF-268 CNS | IGROV1 ovarian | UACC-257 melanoma | SNB-75 CNS | MCF7 breast | RXF 393 renal | A549 NSCLC | SNB-19 CNS | MDA-MB-435 | HS 578T breast | HOP-92 NSCLC | BT-549 breast | COLO 205 colon | SK-MEL-5 melanoma | RPMI-8226 leukemia | UACC-62 melanoma | SR leukemia | TK-10 renal | A498 renal | HT29 colon | SK-OV-3 ovarian | LOX IMVI melanoma | ACHN renal | MDA-MB-231 breast | NCI-H522 lung | SK-MEL-2 melanoma | NCI-H460 lung | HCT-15 colon | NCI-H226 lung | MDA-N | SN12C renal | HL-60(TB) leukemia | DU-145 prostate | OVCAR-3 ovarian | MOLT-4 leukemia | EKVX NSCLC | OVCAR-5 ovarian

N#Cc1nc(/C=C/c2nc(C#N)c(N)o2)oc1N
> 10 µM: SF-295 CNS | T-47D breast | CAKI-1 renal | OVCAR-8 ovarian | NCI/ADR-RES ovarian | OVCAR-4 ovarian | HCC-2998 colon | UO-31 renal | PC-3 prostate | M14 melanoma | KM12 colon | K-562 leukemia | SF-539 CNS | CCRF-CEM leukemia | HCT-116 colon | NCI-H23 lung | 786-0 renal | SW-620 colon | SF-268 CNS | IGROV1 ovarian | MALME-3M melanoma | UACC-257 melanoma | SNB-75 CNS | MCF7 breast | RXF 393 renal | A549 NSCLC | SNB-19 CNS | MDA-MB-435 | HS 578T breast | HOP-92 NSCLC | BT-549 breast | COLO 205 colon | SK-MEL-5 melanoma | RPMI-8226 leukemia | UACC-62 melanoma | SR leukemia | HOP-62 NSCLC | TK-10 renal | HT29 colon | SK-OV-3 ovarian | SK-MEL-28 melanoma | LOX IMVI melanoma | ACHN renal | MDA-MB-231 breast | NCI-H522 lung | NCI-H460 lung | HCT-15 colon | NCI-H226 lung | MDA-N | SN12C renal | HL-60(TB) leukemia | DU-145 prostate | EKVX NSCLC

From PubChem BioAssay (NCI)
